Measurements reported in PubChem BioAssay AID434987 (Southern Research Specialized Biocontainment Screening …, 2010).
Activity calls are given as the source filed them. The rule behind the calls is not given here.

System: M. tuberculosis H37Rv growth inhibition with meropenem
Experiment: dose response, H37Rv, with and without meropenem (AID 434987);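 note: growth over 7 days at 37 °C before Alamar Blue read on day 9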
[1] = M. tuberculosis H37Rv growth inhibition, measured here: IC50 without meropenem
[2] = M. tuberculosis H37Rv growth inhibition, measured here: IC90 without meropenem
[3] = measured here: IC90 with meropenem

CCc1ccc(NC(=O)C2C3/C=C\CCCCC32)cc1 (stereo not given)
IC50: 72 µM (inactive) | IC50 [1]: > 100 µM | IC90 [2]: > 100 µM | IC90 [3]: > 100 µM

CC(C)(C)c1ccc(C(=O)Oc2ccc3c(c2)OCC3=O)cc1
IC50: 8.64 µM | IC50 [1]: > 100 µM | IC90 [2]: > 100 µM | IC90 [3]: 29.4 µM

CC1=NN(c2ccccc2)C(=O)C1C=Nc1ccccc1O (stereo not given)
IC50: > 100 µM (inactive) | IC50 [1]: > 100 µM | IC90 [2]: > 100 µM | IC90 [3]: > 100 µM

O=C1Nc2c(ccc(Cl)c2Cl)C(=O)C1(F)c1ccccc1 (stereo not given)
IC50: 23.7 µM | IC50 [1]: 95.6 µM | IC90 [2]: > 100 µM | IC90 [3]: 71.7 µM

COCCNC(=S)N/N=C1\CC(C)CC(C)(C)C1 (stereo not given)
IC50: 24.5 µM (inactive) | IC50 [1]: 32.4 µM | IC90 [2]: 41.1 µM | IC90 [3]: 27.5 µM

CCC(=O)NC(=S)Nc1ccc(NC(=O)c2ccccc2[N+](=O)[O-])cc1
IC50: > 100 µM (inactive) | IC50 [1]: > 100 µM | IC90 [2]: > 100 µM | IC90 [3]: > 100 µM

Cc1nc(/N=C(\N)NC(=O)c2ccccc2)nc2ccccc12
IC50 [1]: > 100 µM | IC90 [2]: > 100 µM | IC90 [3]: > 25 µM

Cc1onc(-c2c(Cl)cccc2Cl)c1/C(N)=N/OC(=O)C1CC1
IC50: 2.05 µM | IC50 [1]: > 100 µM | IC90 [2]: > 100 µM | IC90 [3]: > 25 µM

O=C(Nc1ccc(S(=O)(=O)N2CCCCC2)cc1)C1CCCN(C(=O)c2ccc(Cl)cc2)C1 (stereo not given)
IC50: > 100 µM (inactive) | IC50 [1]: > 100 µM | IC90 [2]: > 100 µM | IC90 [3]: > 100 µM

Cc1ccc(/C=N\NC(=O)c2csnn2)cc1
IC50: 66.4 µM (inactive) | IC50 [1]: > 100 µM | IC90 [2]: > 100 µM | IC90 [3]: > 100 µM

Cc1nc(Nc2ccc(Cl)cc2Cl)sc1C(=O)Nc1ccccc1
IC50: > 100 µM (inactive) | IC50 [1]: > 100 µM | IC90 [2]: > 100 µM | IC90 [3]: > 100 µM

CC(/C=N/NC(=O)c1cc(C(C)(C)C)[nH]n1)=C\c1ccccc1
IC50: > 100 µM (inactive) | IC50 [1]: > 100 µM | IC90 [2]: > 100 µM | IC90 [3]: > 100 µM

O=c1[nH]c(C2CCN(S(=O)(=O)c3ccc(S(=O)(=O)NC4CC4)cc3)CC2)nc2c1nnn2Cc1ccc(F)cc1
IC50: > 100 µM (inactive) | IC50 [1]: > 100 µM | IC90 [2]: > 100 µM | IC90 [3]: > 100 µM

COc1ccc(CNC(=O)c2sc3nc4c(c(C(F)(F)F)c3c2N)CCC4)cc1
IC50: 7.76 µM (inactive) | IC50 [1]: 10.5 µM | IC90 [2]: > 25 µM | IC90 [3]: > 100 µM

CCO[C@H]1OC(C(=O)NCc2nc3ccccc3[nH]2)=C[C@@H](c2cn(C(C)=O)c3ccccc23)[C@@H]1CCCO
IC50: 90.7 µM (inactive) | IC50 [1]: 80 µM | IC90 [2]: > 100 µM | IC90 [3]: > 100 µM

CCCOc1ccc(C(=O)CCN2CCCCC2)cc1
IC50: 13.4 µM | IC50 [1]: 54 µM | IC90 [2]: 77.1 µM | IC90 [3]: 36.4 µM

COc1ccc2nc(SCC(=O)N3CCCCCC3)c(C#N)cc2c1
IC50: > 50 µM (inactive) | IC50 [1]: > 100 µM | IC90 [2]: > 100 µM | IC90 [3]: > 50 µM

Cc1cccnc1NC(=S)NC(=O)c1cncc(Br)c1
IC50: 4.68 µM | IC50 [1]: 40.3 µM | IC90 [2]: > 100 µM | IC90 [3]: > 100 µM

COCCCNc1nc(SCc2ccccc2)nc2sc3c(c12)CCC3
IC50: 97.3 µM (inactive) | IC50 [1]: > 100 µM | IC90 [2]: > 100 µM | IC90 [3]: > 100 µM

CCC(=O)Nc1cc(OC)c(NC(=O)c2ccccc2)cc1OC
IC50: 22.7 µM | IC50 [1]: 93.4 µM | IC90 [2]: > 100 µM | IC90 [3]: > 100 µM

Cc1nc2sc3c(c2c2nnc(SCC(=O)NCc4ccco4)n12)CCCC3
IC50: 82.6 µM (inactive) | IC50 [1]: 80.4 µM | IC90 [2]: > 100 µM | IC90 [3]: > 100 µM

COc1cc(SC)ccc1C(=O)Nc1ccc(C)cc1C
IC50: 38.3 µM | IC50 [1]: > 100 µM | IC90 [2]: > 100 µM | IC90 [3]: > 100 µM

COc1ccc(OC)c(NC(=O)c2ccccc2SC)c1
IC50: 19.8 µM | IC50 [1]: 83 µM | IC90 [2]: > 100 µM | IC90 [3]: > 100 µM

COc1ccc(OC(=O)c2cccc([N+](=O)[O-])c2)c(C(=O)/C=C/c2cccs2)c1
IC50: 27.5 µM | IC50 [1]: 68.3 µM | IC90 [2]: > 100 µM | IC90 [3]: > 100 µM

O=C(OC(C(=O)Nc1ccc(Cl)cc1C(F)(F)F)c1ccccc1)C1=COCCO1 (stereo not given)
IC50: 1.23 µM | IC50 [1]: > 100 µM | IC90 [2]: > 100 µM | IC90 [3]: > 100 µM

O=C(C1=C[C@H](c2ccc(Br)cc2)C[C@H](OCc2ccc(CO)cc2)O1)N1CCN(Cc2ccc3c(c2)OCO3)CC1
IC50: 50.4 µM (inactive) | IC50 [1]: > 100 µM | IC90 [2]: > 100 µM | IC90 [3]: > 100 µM

CCO[C@H]1OC(C(=O)NCc2nc3ccccc3[nH]2)=C[C@@H](c2ccc(C(F)(F)F)cc2)[C@@H]1CCCO
IC50: > 100 µM (inactive) | IC50 [1]: > 100 µM | IC90 [2]: > 100 µM | IC90 [3]: > 100 µM

O=C(NCc1nc2ncc(Br)cc2[nH]1)c1ccccc1
IC50: 49.2 µM (inactive) | IC50 [1]: 94 µM | IC90 [2]: > 100 µM | IC90 [3]: 54.9 µM

CC(=O)Nc1ccc(SCC(=O)c2cc(C)n(CC(F)(F)F)c2C)cc1
IC50: 47.7 µM (inactive) | IC50 [1]: 53.5 µM | IC90 [2]: > 100 µM | IC90 [3]: > 100 µM
